Here are results for 2 compounds from US20020082249A1, “Prodrugs of aspartyle protease inhibitors” (priority 1997, published 2002).

The term Cmax denotes the maximum level reached in the sampled fluid or tissue. As a reminder, the Tmax is the time from dosing to the highest level. The half-life is the time in which the quantity being followed falls by half. A higher half-life goes with slow decline.

Data set [1] is described as follows: Pharmacokinetics in Sprague-Dawley rats following single oral dose. As to conditions: for AUC: rats; for Cmax / half-life: both, Sprague-Dawley, rat, in vivo, po.
A short description of data set [2]: Similar oral pharmacokinetic study on dogs (solid capsule and solution formulations). As to conditions: dog, in vivo, 17 mg/kg.

Consider `CC(C)CN(C[C@@H](OP(=O)(O)O)[C@H](Cc1ccccc1)NC(=O)O[C@H]1CCOC1)S(=O)(=O)c1ccc(N)cc1` [Compound 229], for which the “compound 229 detected in blood samples” value in data set [1] (after oral administration, first time point blood sample or later samples, suggests first pass metabolism to VX-478) is reported as “none of that compound was detected”. For the same compound, the “delivery of VX-478, aqueous dose of 229 versus VX-478 formulations” value in data set [1] (aqueous dose of compound 229 compared with the two non-aqueous formulations used for VX-478) is given as “equivalence in delivery”. Further, the “bioavailability, aqueous solution versus other vehicles” value in data set [1] (oral administration of compound 229 as an aqueous solution, in comparison to the other vehicles studied) is given as “improved bioavailability”. Moreover, the AUC is 10.6 ug*hr/m1 in data set [1] (compound 229 PO, 40 mg/Kg molar equiv. of VX-478, vehicle H2O:PG:EtOH 5:4:1); 11.7 ug*hr/m1 in data set [1] (compound 229 PO, 40 mg/Kg molar equiv. of VX-478, vehicle H2O, VX-478 measured in plasma); 7.4 ug*hr/m1 in data set [1] (compound 229 PO, 40 mg/Kg molar equiv. of VX-478, vehicle PEG 400); 8.2 ug*hr/m1 in data set [1] (compound 229 PO, 40 mg/Kg molar equiv. of VX-478, vehicle TPGS/PEG 400/PG).
Turning to `CC(C)CN(C[C@@H](O)[C@H](Cc1ccccc1)NC(=O)O[C@H]1CCOC1)S(=O)(=O)c1ccc(N)cc1` [VX-478], the AUC in data set [2] was 23500 ± 7400 ng·h/mL; in data set [1] (VX-478 41 mg/Kg PO, vehicle 33% TPGS/PEG 400/PG), 29.6 ug*hr/m1; in data set [1] (VX-478 50 mg/Kg PO, vehicle 12.5% TPGS/PEG 400/PG), 16.2 ug*hr/m1. The Cmax was determined as 6800 ± 1100 ng/mL in data set [2], 14 µM in data set [1] (41 mg/kg) and 6 µM in data set [1] (50 mg/kg). For the same compound, the Tmax in data set [2] worked out at 1 ± 0.8 h. Further, the half-life in data set [1] (41 mg/kg) is 2.5 h; in data set [1] (50 mg/kg) it was 2.2 h.
